The values that follow come from patent US4452813A, “Sulfonate derivatives, process for preparing same and antilipemic compositions containing the derivative” (Taiho Pharmaceutical Company Limited, priority 1981, dated 1984).

Bounds are passed on as bounds.

A word on the IC50: it is the concentration needed to halve the response being measured. A low value points to greater potency. By inhibition is commonly meant how much of the control response was suppressed. As a reminder, the LD50 is the dose at which mortality reaches 50%.

In one data set the target is esterase (purified microsome fraction of the liver of a rat). The data set can be described thus: Esterase inhibiting activity (hydrolysis of methyl butyrate). The data set is classed as biochemical. Particulars: methyl butyrate substrate, pH 8.0, 37° C., 60 minutes. The method, then:
1. Esterase Inhibiting Activity
A 10 micromole quantity of methyl butyrate in a 50% ethanol solution is added as a substrate to a specified amount of buffer solution (pH 8.0) containing 0.1 mole of trishydrochloric acid. To the mixture is further added a 50% ethanol solution of the compound of the invention, immediately followed by addition of an esterase solution prepared from a purified microsome fraction of the liver of a rat (adjusted to hydrolyze 9 micromoles of methyl butyrate at 37° C. in one hour). The mixture is reacted at 37° C. for 60 minutes.
After the reaction, alkaline hydroxylamine is added to the mixture to form a hydroxamic acid derivative of methyl butyrate, and a ferric salt is added to the derivative. The resulting red color is colorimetrically determined (at a wavelength of 540 nm) to determine the amount of remaining methyl butyrate. The esterase inhibiting ratios of the present compound at least at three concentrations are plotted as ordinate, and the logarithms of the concentrations as abscissa to obtain a line, which gives the 50% inhibition concentration (IC50).
With `Cc1ccc(S(=O)(=O)OCC(=O)[C@H]2CC[C@H](C(C)(C)C)CC2)cc1` [Compound 37], the IC50 was determined as 5.4 µM.
On the same count and under the same terms, with `CCOc1ccc(S(=O)(=O)OCC(=O)C(CC)CC2CCCCC2)cc1` (centres unmarked) [Compound 7] the figure was 200 µM.
Still for that read-out and setting: the same measure for `COc1ccc(S(=O)(=O)OCC(=O)C(C)CC2CCCCC2)cc1` (centres unmarked) [Compound 3]: 4 µM; for `CCOc1ccc(S(=O)(=O)OCC(=O)CC(C)C2CCCCC2)cc1` (centres unmarked) [Compound 11]: 7.2 µM.
The same measure, in the same setting: the same measure for `Cc1ccc(S(=O)(=O)OCC(=O)CC(C)C2CCCCC2)cc1` (centres unmarked) [Compound 9]: 4.2 µM.
Molecule `CC(C)C[C@H]1CC[C@H](C(=O)COS(=O)(=O)c2ccccc2)CC1` [Compound 31] yielded a half-inhibitory concentration (IC50) of 1.6 µM.
On the same count and under the same terms, with `CCOc1ccc(S(=O)(=O)OCC(=O)C(CC)C2CCC(C)CC2)cc1` (centres unmarked) [Compound 14] the figure was 40 µM; with `CC(C)[C@H]1CC[C@H](C(=O)COS(=O)(=O)c2ccccc2)CC1` [Compound 25, trans-2-(benzene-sulfonyloxy)-1-(4-isopropylcyclohexyl)-1-ethanone], 0.065 µM.

The target in the next data set is Chymotripsin (Bos taurus, UniProt P00766). The data set can be described thus: Chymotripsin inhibiting activity (hydrolysis of ATEE). The class given is biochemical. To be noted: 0.5 h; 1 × 10^-4 mol; 20 min preincubation, ATEE 30 min, 37° C., pH 8.0. The method, then: 2. Chymotripsin Inhibiting Activity
Chymotripsin (0.1 unit) serving as an enzyme solution is added to a specified quantity of buffer solution (pH 8.0) containing 0.1 mole of trishydrochloric acid. To the mixture is further added a 50% ethanol solution of the compound of the invention. The mixture is reacted at 37° C. for 20 minutes.
On completion of the reaction, 10 micromoles of […] (ATEE) serving as a substrate is added to the mixture, and the resulting mixture is reacted at 37° C. for 30 minutes.
After the completion of the reaction, the amount of remaining ATEE is determined by the same hydroxamic acid method as above. The percent chymotripsin inhibition is given by [formula] wherein A is the amount of hydrolzed esters in the reaction system not containing the compound of the invention, and B is the amount of hydrolyzed esters in the reaction system containing the present compound.
For the molecule `Cc1ccc(S(=O)(=O)OCC(=O)[C@H]2CC[C@H](C(C)(C)C)CC2)cc1` [Compound 37], the inhibition at 100 µM came to 22%.
Same read-out and setting: the same measure for `CCOc1ccc(S(=O)(=O)OCC(=O)C(CC)CC2CCCCC2)cc1` (centres unmarked) [Compound 7]: 13%.
On the same count and under the same terms, with `COc1ccc(S(=O)(=O)OCC(=O)C(C)CC2CCCCC2)cc1` (centres unmarked) [Compound 3] the figure was 93%; with `CCOc1ccc(S(=O)(=O)OCC(=O)CC(C)C2CCCCC2)cc1` (centres unmarked) [Compound 11], 19%; with `Cc1ccc(S(=O)(=O)OCC(=O)CC(C)C2CCCCC2)cc1` (centres unmarked) [Compound 9], 31%.
Turning to `CC(C)C[C@H]1CC[C@H](C(=O)COS(=O)(=O)c2ccccc2)CC1` [Compound 31], the inhibition at 100 µM was 43%.
Molecule `CCOc1ccc(S(=O)(=O)OCC(=O)C(CC)C2CCC(C)CC2)cc1` (centres unmarked) [Compound 14] came in with an inhibition at 100 µM of 40%.
In turn, `CC(C)[C@H]1CC[C@H](C(=O)COS(=O)(=O)c2ccccc2)CC1` [Compound 25, trans-2-(benzene-sulfonyloxy)-1-(4-isopropylcyclohexyl)-1-ethanone] returned an inhibition at 100 µM of 62%.

A further data set deals with triglycerides content in the plasma. As to the kind of experiment: Antilipemic effect: inhibition of olive oil-induced hyperlipidemia, plasma triglycerides. The data set is classed as in vivo, male Wister rats. Particulars: Rattus norvegicus, 100 mg compound in 5 ml olive oil, 5 ml/kg oral, 2 hours, read-out: Antilipemic effect IGI (%) (percent hyperlipidemia inhibition, triglycerides). The method, then: Seven-week-old male Wister rats weighing 200 to 220 g are used, 5 rats in each group.
The compound of the invention (100 mg) is dissolved in 5 ml of olive oil. The olive oil containing the compound is orally given to the rat with a probe at a dose of 5 ml/kg. Two hours thereafter, 6 ml of whole blood is withdrawn from the descending aorta of the rat under ether anesthesia with a syringe containing heparin. The blood is centrifuged at 5° C. and 3000 r.p.m. to obtain the plasma. The plasma collected is used for determining the triglycerides content, using a triglycerides measuring kit (trade mark "Triglycerides-B Test Wako," product of Wako Junyaku Co., Ltd., Japan). Olive oil containing no compound is similarly given to a control group, while no treatment is conducted for a normal group. The triglycerides content in the plasma is also determined for these groups in the same manner as is the case with the test groups.
The percent hyperlipidemia inhibition achieved by the present compound is given by [formula] in which A is the triglycerides content of the control group, B is the triglycerides content of the normal group, and C is the triglycerides content of the group to which the present compound is given.
As to `Cc1ccc(S(=O)(=O)OCC(=O)[C@H]2CC[C@H](C(C)(C)C)CC2)cc1` [Compound 37], the inhibition in vivo at 100 mg/kg amounted to 66%.
On the same count and under the same terms, with `CCOc1ccc(S(=O)(=O)OCC(=O)C(CC)CC2CCCCC2)cc1` (centres unmarked) [Compound 7] the figure was 71%; with `COc1ccc(S(=O)(=O)OCC(=O)C(C)CC2CCCCC2)cc1` (centres unmarked) [Compound 3], 63%.
Same read-out and setting: with `CCOc1ccc(S(=O)(=O)OCC(=O)CC(C)C2CCCCC2)cc1` (centres unmarked) [Compound 11] the figure was 60%; with `Cc1ccc(S(=O)(=O)OCC(=O)CC(C)C2CCCCC2)cc1` (centres unmarked) [Compound 9], 70%.
`CC(C)C[C@H]1CC[C@H](C(=O)COS(=O)(=O)c2ccccc2)CC1` [Compound 31]: the inhibition in vivo at 100 mg/kg turned out to be 79%.
The same measure, in the same setting: with `CCOc1ccc(S(=O)(=O)OCC(=O)C(CC)C2CCC(C)CC2)cc1` (centres unmarked) [Compound 14] the figure was 81%; with `CC(C)[C@H]1CC[C@H](C(=O)COS(=O)(=O)c2ccccc2)CC1` [Compound 25, trans-2-(benzene-sulfonyloxy)-1-(4-isopropylcyclohexyl)-1-ethanone], 90%.

Tested on in a further data set: not listed separately
The data set can be described thus: Acute toxicity, oral, one week. To be noted: rat, in vivo, 5% gum arabic suspension. An excerpt:
Six-week-old male Wister rats weighing 180 to 200 g are used, 5 rats in each group. The present compound is suspended in a 5% aqueous solution of gum arabic, and the suspension is orally given to the rats. For one week after the start of the test, the rats are checked evey day for general toxicity symptoms, body weight and death to determine the LD50 value.
Take `Cc1ccc(S(=O)(=O)OCC(=O)[C@H]2CC[C@H](C(C)(C)C)CC2)cc1` [Compound 37]: the LD50 at 168 h was more than 3000 mg/kg.
As for `CCOc1ccc(S(=O)(=O)OCC(=O)C(CC)CC2CCCCC2)cc1` (centres unmarked) [Compound 7], the LD50 at 168 h was more than 3000 mg/kg.
On to `COc1ccc(S(=O)(=O)OCC(=O)C(C)CC2CCCCC2)cc1` (centres unmarked) [Compound 3], for which the LD50 at 168 h is more than 3000 mg/kg.
Same read-out and setting: the same measure for `CCOc1ccc(S(=O)(=O)OCC(=O)CC(C)C2CCCCC2)cc1` (centres unmarked) [Compound 11]: more than 3000 mg/kg; for `Cc1ccc(S(=O)(=O)OCC(=O)CC(C)C2CCCCC2)cc1` (centres unmarked) [Compound 9]: more than 2000 mg/kg.
The same measure, in the same setting: with `CC(C)C[C@H]1CC[C@H](C(=O)COS(=O)(=O)c2ccccc2)CC1` [Compound 31] the figure was more than 3000 mg/kg; with `CCOc1ccc(S(=O)(=O)OCC(=O)C(CC)C2CCC(C)CC2)cc1` (centres unmarked) [Compound 14], more than 3000 mg/kg; with `CC(C)[C@H]1CC[C@H](C(=O)COS(=O)(=O)c2ccccc2)CC1` [Compound 25, trans-2-(benzene-sulfonyloxy)-1-(4-isopropylcyclohexyl)-1-ethanone], more than 3000 mg/kg.

Tested on in another data set: not given
Assay: not given
Particulars: background literature; cited from earlier work.
On to `CCOC(=O)C(C)(C)Oc1ccc(Cl)cc1` [Clofibrate], for which the “reported side effects (in words)” value is given as “carcinogenic activity”.
Turning to `O=C(O)c1cccnc1` [Nicotinic acid], the “reported side effects (in words)” value is “pruritus and cutaneous flushing due to vasodilatation, gastrointestinal disorders, abnormalities in liver function and glucose intolerance”.

The same data set, now with this note: background literature; listed as clofibrate; cited from earlier work.
Regarding `CCOC(=O)C(C)(C)Oc1ccc(Cl)cc1` [Clofibrate], the “reported side effects (in words)” value is “increased sterol discharge”.
